Assays:
[1] = target: trypsin IV (mesotrypsin); details: versus trypsin IV (mesotrypsin); cited from earlier work
[2] = target: T1, mesotrypsin (Homo sapiens, UniProt P35030); assay: Competitive inhibition assay with N-Cbz-Gly-Pro-Arg-pNA, mesotrypsin; assay type: biochemical; details: for Ki: 0.25 nM enzyme, 37°C, pH 8.0, global fit to competitive inhibition, duplicate independent experiments
T1 construct: made in house; host or cells: E. coli
T1 sequence (P35030 81-304 limits assumed): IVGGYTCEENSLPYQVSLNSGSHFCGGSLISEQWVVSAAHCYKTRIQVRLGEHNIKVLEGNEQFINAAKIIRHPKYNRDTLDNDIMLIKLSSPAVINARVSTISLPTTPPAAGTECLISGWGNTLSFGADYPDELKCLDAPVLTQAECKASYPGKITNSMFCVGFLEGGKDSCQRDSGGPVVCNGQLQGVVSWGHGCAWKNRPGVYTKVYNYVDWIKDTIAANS
Description: (§1) Recombinant human anionic trypsinogen, human cationic trypsinogen and human mesotrypsinogen were expressed in E. coli, extracted from inclusion bodies, refolded, purified and activated with bovine enteropeptidase as described in previous work.
(§2) Active mesotrypsin was quantified by active site titration as described in [21] using 4-nitrophenyl-4-guanidinobenzoate (NPGB) from Sigma. Concentrations of colorimetric peptide reporter substrate N-Cbz-Gly-Pro-Arg-pNA (Sigma) for the activity and competitive inhibition assay were determined by end point assay. Working stocks for compounds were diluted in dimethylsulfoxide (DMSO) and stored at -20°C. Compounds were assessed for mesotrypsin inhibitory activity in reactions carried out in cuvettes at 37°C in a Varian Cary-100 spectrophotometer. Reactions consisted of 0.25 nM enzyme, 100 μM reporter substrate, 100 mM Tris-HCl pH 8.0, 1 mM CaCl2, and a compound concentration range between 50 nM to 500 μM in the assay. Reactions were followed for approximately three minutes, with the initial rates determined by the linear increase in absorbance resulting from para-nitroaniline production (ε410 = 8480 M^-1 cm^-1). Absorbance versus compound concentration was plotted on a Linear-Log scale to determine IC50.
(§3) The competitive inhibition assay reactions consisted of 0.25 nM enzyme, five reporter substrate concentrations between 10 μM-200 μM, and five inhibitory compound concentrations between 1–30 μM. Reactions were followed for approximately 3 minutes, and the initial rate data were globally fitted using Prism (GraphPad Software, San Diego CA) by non-linear regression based on Eq 1. Results are from duplicate independent experiments.
(§4) V= Kcat[E]o[S]/Km (1+[I]/Ki)+[S] (1)

[3] = target: T2, trypsin 2 (anionic trypsin) (Homo sapiens, UniProt P07478); assay: Competitive inhibition assay, anionic trypsin; assay type: biochemical; details: human trypsin 2
T2 construct: made in house; host or cells: E. coli
Description: (§5) To assess compound selectivity we determined Ki for the three compounds towards related human trypsin isoforms trypsin 1 (cationic trypsin) and trypsin 2 (anionic trypsin).
as §1, §3, §4

[4] = target: T1, mesotrypsin; assay: Mesotrypsin activity assay (colorimetric, N-Cbz-Gly-Pro-Arg-pNA); assay type: biochemical; details: 0.25 nM enzyme, 100 μM substrate, compound 50 nM to 500 μM, 37°C
Description: Compounds were tested by an in vitro activity assay utilizing the colorimetric peptide reporter substrate N-Cbz-Gly-Pro-Arg-pNA. The assay monitors the rate of para-nitroaniline production after substrate cleavage by mesotrypsin.
as §1
as §2, with “Reactions consisted of 0.25 nM enzyme, 100 μM reporter substrate, 100 mM Tris-HCl pH 8.0, 1 mM CaCl2, and a compound concentration range between 50 nM to 500 μM in the assay.” left out

[5] = target: T3, trypsin 1 (cationic trypsin) (Homo sapiens, UniProt P07477); assay: Competitive inhibition assay, cationic trypsin; assay type: biochemical; details: human trypsin 1
T3 construct: made in house; host or cells: E. coli
Description: as §5, §1, §3, §4

T2 sequence (P07478 24-247): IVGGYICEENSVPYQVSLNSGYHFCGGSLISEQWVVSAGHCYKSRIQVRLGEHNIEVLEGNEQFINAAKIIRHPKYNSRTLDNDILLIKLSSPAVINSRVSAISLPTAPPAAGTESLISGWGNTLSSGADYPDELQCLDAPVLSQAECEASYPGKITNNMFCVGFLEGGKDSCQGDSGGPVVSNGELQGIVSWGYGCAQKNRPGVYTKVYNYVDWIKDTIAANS

Row | Ki [2] [µM] | inhibition mode ([2]; multiple substrate and compound concentrations, Lineweaver-Burk) | Ki [3] [µM] | inhibitory activity towards mesotrypsin [4] | Ki [5] [µM] | SMILES | Ki [1] [µM]
1 |  |  |  |  |  | N=C(N)c1ccccc1 [Benzamidine] | 22
2 | 3.66 | competitive inhibitor | 2.29 ± 0.21 | low micromolar range | 3.44 ± 0.41 | N=C(N)c1ccc(/N=N/Nc2ccc(C(=N)N)cc2)cc1 [Diminazene] | 
3 | 10.6 |  | 1.7 ± 0.05 | low micromolar range | 3.35 ± 0.35 | N=C(N)c1ccc(/C=C/c2ccc(C(=N)N)cc2O)cc1 [Hydroxystilbamidine, hydroxystilbamidine] | 
4 | 5.1 |  | 1.06 ± 0.01 |  | 3.12 ± 0.6 | N=C(N)c1ccc(OCCCCCOc2ccc(C(=N)N)cc2)cc1 [Pentamidine, pentamidine] | 
